Measurements reported in ChEMBL document CHEMBL1201862, “PubChem BioAssay data set” (2004).
Activity calls are given as the source filed them. Cut-off read from the data, not from the text of the source, for most assays here: actives have a measured EC50 and inactives only a lower limit.

Columns and labels:
Type in all cases: functional
Genome polyprotein = Genome polyprotein (dengue virus type 2, UniProt P29990); experiment: Dengue-2 NS5 methyltransferase inhibitors, primary screen, biochemical, confirmation dose response (AID 588689)
[1] = target: T1, Heat shock factor protein 1 (Mus musculus, UniProt P38532); experiment: inhibition of MG132-induced HSE-luciferase signal, confirmation, cell-based, NIH3T3, luminescence, dose retest (AID 2382);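 note: NIH3T3 fibroblasts with HSF1-driven luciferase reporter stressed by proteasome inhibitor MG132; luminescence from HSF1-driven luciferase expression after 8 hours of MG132 stress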
T1 sequence (P38532 whole entry): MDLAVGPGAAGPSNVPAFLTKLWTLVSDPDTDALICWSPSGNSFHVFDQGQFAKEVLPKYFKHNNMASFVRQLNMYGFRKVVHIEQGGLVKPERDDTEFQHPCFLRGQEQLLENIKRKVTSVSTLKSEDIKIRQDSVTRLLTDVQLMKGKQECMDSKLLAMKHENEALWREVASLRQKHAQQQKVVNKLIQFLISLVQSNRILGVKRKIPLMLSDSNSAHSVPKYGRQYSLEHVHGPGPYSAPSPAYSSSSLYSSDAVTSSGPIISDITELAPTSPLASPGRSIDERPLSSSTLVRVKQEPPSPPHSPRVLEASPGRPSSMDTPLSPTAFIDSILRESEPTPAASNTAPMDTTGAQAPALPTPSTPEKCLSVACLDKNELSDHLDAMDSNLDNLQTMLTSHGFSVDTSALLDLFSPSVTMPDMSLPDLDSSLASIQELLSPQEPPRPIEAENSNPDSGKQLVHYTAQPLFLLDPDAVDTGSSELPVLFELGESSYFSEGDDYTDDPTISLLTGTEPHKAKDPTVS

[2] = target: T2, Corticotropin-releasing factor receptor 2/Corticotropin-releasing factor-binding protein (Homo sapiens, UniProt P24387+Q13324); experiment: activators of CRF receptor 2 with binding protein – uHTS hits, confirmation (AID 602473); details: read-out: EC50_Mean
T2 sequence (Q13324 whole entry): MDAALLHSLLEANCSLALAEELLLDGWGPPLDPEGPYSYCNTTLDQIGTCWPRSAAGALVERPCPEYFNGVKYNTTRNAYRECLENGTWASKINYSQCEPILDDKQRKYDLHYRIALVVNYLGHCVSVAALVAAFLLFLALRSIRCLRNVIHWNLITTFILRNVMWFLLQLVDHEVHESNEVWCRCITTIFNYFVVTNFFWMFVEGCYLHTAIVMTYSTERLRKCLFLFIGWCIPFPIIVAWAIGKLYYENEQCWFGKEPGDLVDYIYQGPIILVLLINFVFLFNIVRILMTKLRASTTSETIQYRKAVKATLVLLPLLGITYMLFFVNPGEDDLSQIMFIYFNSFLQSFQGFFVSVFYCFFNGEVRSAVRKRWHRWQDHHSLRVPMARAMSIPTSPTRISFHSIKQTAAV
T2 sequence (P24387 whole entry): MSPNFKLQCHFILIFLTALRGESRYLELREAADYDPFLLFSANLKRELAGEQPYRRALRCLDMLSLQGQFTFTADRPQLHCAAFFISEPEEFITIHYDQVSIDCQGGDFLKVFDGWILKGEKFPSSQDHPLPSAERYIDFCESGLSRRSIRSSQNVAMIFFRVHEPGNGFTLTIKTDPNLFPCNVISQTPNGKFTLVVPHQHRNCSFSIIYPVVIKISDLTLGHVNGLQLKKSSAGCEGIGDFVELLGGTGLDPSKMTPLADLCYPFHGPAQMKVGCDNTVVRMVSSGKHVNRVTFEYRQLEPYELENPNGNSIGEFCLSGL

[3] = Shn3 3'UTR reporter inhibitors, dose response, cell-based, Clone20 osteoblasts, firefly luciferase, cherry-picked (AID 624132);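 note: firefly luciferase luminescence from reporter carrying the Shn3 3'UTR in osteoblasts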
[4] = HEp-2 cell cytotoxicity, dose response, cytotoxicity control for RSV inhibitor project, HTS (AID 2410); details: human respiratory syncytial virus
[5] = Luminescence Cell-Based Dose Confirmation HTS to Identify Activators of 5'UTR Stem-Loop Driven Alpha-Synuclein mRNA Translation in H4 Neuroglioblastoma Cells. [Related pubchem assays: 1829 (Project Summary), 1814 (Primary HTS)]
[6] = Luminescence Cell-Based Dose Response HTS to Identify Activators of Luciferase Translation or Activity in H4 […] Cells. [Related pubchem assays: 1829 (Project Summary), 1814 (Primary HTS)]
H4 = experiment: Luminescence Cell-Based Dose Response HTS to Identify Activators of 5'UTR Stem-Loop Driven Prion Protein mRNA Translation in H4 Neuroglioblastoma Cells. [Related pubchem assays: 1829 (Project Summary), 1814 (Primary HTS)]; details: Homo sapiens

Chain of Genome polyprotein (P29990 2492-3391 limits assumed): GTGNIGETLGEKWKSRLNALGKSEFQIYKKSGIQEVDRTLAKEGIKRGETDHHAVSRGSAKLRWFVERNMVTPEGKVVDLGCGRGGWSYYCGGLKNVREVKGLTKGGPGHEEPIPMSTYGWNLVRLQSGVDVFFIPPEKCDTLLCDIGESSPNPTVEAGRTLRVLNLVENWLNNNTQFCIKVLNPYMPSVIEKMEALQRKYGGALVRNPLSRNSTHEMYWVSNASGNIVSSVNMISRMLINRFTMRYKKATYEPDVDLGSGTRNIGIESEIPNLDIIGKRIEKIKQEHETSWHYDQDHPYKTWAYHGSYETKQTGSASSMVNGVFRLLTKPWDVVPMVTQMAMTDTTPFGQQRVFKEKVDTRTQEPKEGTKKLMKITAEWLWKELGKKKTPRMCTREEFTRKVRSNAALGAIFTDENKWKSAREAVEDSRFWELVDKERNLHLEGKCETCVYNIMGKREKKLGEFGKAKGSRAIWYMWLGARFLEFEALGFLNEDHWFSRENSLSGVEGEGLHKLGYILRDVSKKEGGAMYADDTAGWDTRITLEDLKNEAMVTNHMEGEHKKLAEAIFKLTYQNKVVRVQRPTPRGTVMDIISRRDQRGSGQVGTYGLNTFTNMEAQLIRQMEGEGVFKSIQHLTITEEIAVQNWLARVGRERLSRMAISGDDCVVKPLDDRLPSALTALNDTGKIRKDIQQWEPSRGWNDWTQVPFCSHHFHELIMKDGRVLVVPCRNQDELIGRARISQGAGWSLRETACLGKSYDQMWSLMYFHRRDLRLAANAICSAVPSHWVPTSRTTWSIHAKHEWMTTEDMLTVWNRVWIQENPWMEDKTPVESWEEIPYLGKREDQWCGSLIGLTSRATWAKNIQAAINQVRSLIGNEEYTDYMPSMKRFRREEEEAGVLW

COc1ccc(C(C2C(=O)CC(C)(C)CC2=O)C2C(=O)CC(C)(C)CC2=O)cc1
IC50 (Genome polyprotein): 30.4 µM (active)

CC1(C)CC(=O)C2=C(C1)N(Cc1ccccc1)C(=O)C2(NC(=O)C(C)(C)C)C(F)(F)F (stereo unspecified)
EC50 [1]: > 195 µM (not active)

Cc1cc(N2CCCCC2)nc(N)n1
EC50 [2]: 6.28 µM (active)

Sc1nnc(COc2cccc3ccccc23)n1Cc1ccccc1
AC50 [3]: 48 µM (active)

Cc1cc(-n2c(C)cc(C(=O)CSc3nc4ccccc4c(=O)n3Cc3ccco3)c2C)no1
EC50 [2]: > 53 µM (inactive)

Cc1c(C(=O)Nc2ccc(F)cc2)sc2ncn(CC(=O)N3CCCCC3)c(=O)c12
EC50 [1]: > 195 µM (not active)

COc1ccc(Cl)cc1NC(=O)CSc1nc2ccsc2c(=O)n1CC1CCC(C(=O)O)CC1 (stereo unspecified)
CC50 [4]: > 50 µM (active) | EC50 [1]: > 195 µM (not active)

CCOC(=O)c1ccc(NC(=O)C2C3C=CC(O3)C2C(=O)O)cc1 (stereo unspecified)
EC50 [5]: > 60 µM (not active) | EC50 [6]: > 120 µM (not active) | EC50 (H4): > 120 µM (not active) | EC50 [1]: > 195 µM (not active)

O=C1C(Cl)=C(N2CCCC2)C(=O)N1c1ccccc1F
IC50 (Genome polyprotein): 84.4 µM (active)

COc1ccc(/C=C2/C(=O)NC(=O)N(c3ccc(C)c(C)c3)C2=O)cc1CN1C(=O)c2ccccc2C1=O
IC50 (Genome polyprotein): 99.5 µM (active)

CCOc1ccc(/C=N/NC(=O)c2ccc(Cn3cc([N+](=O)[O-])cn3)o2)cc1
EC50 [1]: > 195 µM (not active)

Cc1ccc(/C=N/NC(=O)c2nnn(-c3nonc3N)c2CN(C)C2CCCCC2)cc1
EC50 [1]: > 195 µM (not active)
